Assay results taken from patent publication US5763430A, “Method of treating a viral infection by administering a steroid compound” (priority 1995, dated 1998).
“Also recorded” adds a separate entry of the source.

Key:
B16 melanoma = assay: suppression of growth of B16 melanoma in C57B mice; format: in vivo, mouse
Description: The growth of B16 melanoma in C57B mice is dependent upon neovascularization.
Using the growth of B16 melanoma cells in C57B mice, a recognized model for the evaluation of inhibitors of angiogenesis on the growth of cancers, the effects of subcutaneous, intraperitoneal and oral administration of squalamine were evaluated.
Based on the idea that tumor growth involves both the clonal expansion of a malignant cell along with the development of a supporting vascular supply, a combination of compound 1436 with squalamine was tested to determine whether it would achieve a synergistic effect on solid tumor growth. This concept was evaluated in the B16 melanoma model.
Animals were implanted with B16 melanoma followed by treatment with compound 1436 or 1256 administered in a combined schedule or separately. […] Thus, a combination of these two compounds achieves a therapeutic benefit in tumors dependent on neovascularization that may prevent metastatic spread.

[1] = test system: stage 59-60 Xenopus tadpole; assay: Xenopus tadpole assay; settings: 10 μg/ml; for tadpole response: about 1 hour
melanoma 1205Lu = assay: suppression of growth of human melanoma in immunocompromised (RAG-1) mice; format: in vivo, human melanoma in mouse; settings: FIG. 5, listed as Squalamine
Description: As apparent from FIG. 5, melanoma 1205Lu develops aggressively in RAG-1 mice after implantation.

CC(C)[C@@H](CC[C@@H](C)[C@H]1CC[C@H]2[C@@H]3[C@H](O)C[C@H]4C[C@@H](NCCCNCCCCN)CC[C@]4(C)[C@H]3CC[C@]12C)OS(=O)(=O)O [Compound 1256]
impact on tumor volume (B16 melanoma; 5 mg/kg/day alone, FIG. 12): no significant impact on tumor volume | body weight and hematologic parameters (B16 melanoma; mouse, in vivo): no significant depression | tumor volume (B16 melanoma; subcutaneous, intraperitoneal or oral, FIGS. 4A-4C): dose-dependent suppression of tumor volume | time to death of tadpole [1]: ≤ 2 h | tadpole response [1]: Vascular occlusion in fine capillaries of tail. No effect on vascular flow through hands or feet | tadpole response ([1]; listed as squalamine): blood flow through the capillaries of the tail shut down; also recorded: common vascular occlusive effect | growth of melanoma 1205Lu (melanoma 1205Lu): suppress the growth of melanoma 1205Lu in RAG-1 mice in a dose-dependent fashion; also recorded: clear suppression of tumor growth in a dose-dependent fashion
